Key:
[1] = background statement; cited from earlier work
[2] = dissolution rate analysis by dissolution tester (Weibull model); type: physicochemical
Protocol: The microparticle morphology and size are detected by the scanning electron microscopy (SEM). The particle size distribution (PSD) is analyzed by the image analysis software “Image J”. The crystal properties are analyzed by the X-Ray diffractometer. The changes in the crystal form are detected by the differential scanning calorimetry (DSC). […] The analyses of the dissolution rate are performed by the dissolution tester.

dissolution rate coefficient [2]: 0.0626 min⁻¹
Structure (SMILES): CC(=O)Nc1nnc(S(N)(=O)=O)s1 [acetazolamide bulk drug, acetazolamide]
particle size of commercial acetazolamide drug [1]: about 20 μm
